Assays:
[1] = Degradation of amoxicillin by gamma radiation, 1H and 13C NMR; format: physicochemical; details: 5 mg/mL in water/D2O 1:1, 7 kGy
Experimental: Further, an additional confirmation of the degradation of amoxicillin was conducted using ^1H and ^13C NMR studies. Amoxicillin is dissolved in water and diluted at a ratio of 1:1 using D2O. A high concentration of amoxicillin (5 mg/mL) was used for this technique, with water as the NMR solvent. […] It is observed that the proton signals (at 4.5 to 4.8 ppm) of amoxicillin before irradiation are disappearing upon irradiation treatment. FIG. 11 illustrates the ^13C spectra of 5 mg/mL amoxicillin before and after irradiation treatment at 7 kGy for amoxicillin. Overall, the intensities of ^13C peaks are reduced (approximately 50%) after irradiation treatment indicating the decomposition and reduction in amoxicillin concentration in the sample.

[2] = Degradation of antibiotics in double distilled water by gamma radiation, UV-Vis absorption; format: physicochemical; details: 50 |iM in double distilled water, 7 kGy gamma radiation
Experimental: The three target antibiotics as mentioned above were dissolved in double distilled water to make desired concentrations (in 10 mL volume). […] UV-Vis absorption spectra of the studied antibiotics in solution were recorded before and after irradiation treatment at different doses.
With reference to FIG. 2A, the maximum absorption of doxycycline at 275 nm was plotted against the concentration.

[3] = system: E-coli; assay: E-coli growth inhibition experiments; format: cell-based
Experimental: With reference to FIG. 12 (top panel), two control experiments with water were conducted.

[4] = Removal of amoxicillin spiked in water, milk, eggs and chicken meat by gamma radiation, HPLC; format: physicochemical; details: for Removal percentage: 7 kGy, average across 1, 10, 20 and 50 |iM, assuming 15% error
Text: In all the example mentioned in the foregoing, the source of gamma radiation is a Cobalt-60 gamma rays source model Gamma Cell 220 from MDS Nordion, Canada. The source of gamma radiation was calibrated using aqueous ferrous sulfate (Fricke dosimetry) solution.
The desired concentration of amoxicillin was spiked in water, milk, eggs, and chicken meat. 20 |iL of spiked water samples before and post irradiation treatment was directly injected in HPLC. Amoxicillin spiked in milk, eggs, and chicken meat was extracted using acetonitrile. 2 mL (milk or eggs) or 2 g (chicken meat) of the spiked samples was mixed with 5 mL acetonitrile and shaken for 10 minutes following which the samples were centrifuged for 5 minutes at a speed of 3000 rpm. 5 mL of the supernatant was evaporated in a rotary-evaporation system and the antibiotic residue was dissolved in 2 mL of double distilled water. 20 |iL of the extracted samples was injected in HPLC.
Direct Uv-Vis measurements cannot be conducted to quantify the antibiotics in samples extracted from dairy or poultry products due to the significant chemical interference. FIG. 5 illustrates a comparison of HPLC signals of a range of amoxicillin concentration before and after irradiation with 7 kGy.
Removal percentage of amoxicillin in different samples with varied concentrations is reported by comparing the original concentrations with the corresponding post irradiation concentrations (i.e. before and after irradiation). FIG. 9 illustrates the average removal percentages for each sample type across the different concentration range (1, 10, 20, and 50 |iM), assuming 15% error in the observations. It was observed that there was 100% removal and decomposition of amoxicillin in water & milk samples and 80% removal of amoxicillin in eggs & chicken meat samples at a radiation dose of 7 kGy, within the permissible limits accepted by IAEA for food irradiation.

Structure (SMILES): CC1(C)S[C@@H]2[C@H](NC(=O)[C@H](N)c3ccc(O)cc3)C(=O)N2[C@H]1C(=O)O [amoxicillin]
- Reduction of intensities of 13C peaks after irradiation treatment [1]: approximately 50%
- Removal (decrease of UV-Vis absorption bands) upon gamma irradiation [2]: completely removed
- Antimicrobial effect on E-coli growth ([3]; amoxicillin 150 |iM irradiated at 7 kGy): complete loss of antimicrobial effect
- Antimicrobial effect on E-coli growth ([3]; non-irradiated amoxicillin sample): growth inhibition
- Removal percentage ([4]; chicken meat samples): 80%
- Removal percentage ([4]; eggs samples): 80%
- Removal percentage ([4]; milk samples): 100%
- Concentration of amoxicillin after irradiation (HPLC) ([4]; range of concentrations, after irradiation with 7 kGy): below the detection limit of HPLC
- Removal percentage ([4]; water samples): 100%
